Results taken from patent US4929751A, “Vinyl tricarbonyl compounds and methods of making the same” (Yale University, priority 1987, dated 1990).
Read-outs that look alike come from different tables or passages of the source.

What was measured:
Test in all cases: growth inhibition of tumor cell line
Assay type in all cases: cell-based
[1] = tested on: H146 (small cell lung cancer); conditions: Homo sapiens, NCI-H146
Excerpt: (§1) t-Butyl 2,3-dioxo-pent-4-enoate hydrate (A) was contacted with various cell lines as indicated on Table 1 hereinbelow in the column designated as "CELL" or "TUMOR". […]
(§2) Table 1 reports and illustrates the results obtained by testing t-butyl 2,3-dioxo-pent-4-enoate hydrate. The concentration of this compound found to inhibit the growth of each cell line listed under "CELL" by 50% is reported under "LOG(IC50)" as the logarithm of the concentration. The units of concentration are either molarity in which case an "M" is shown in parentheses next to the LOG(IC50) label, or micrograms per ml, in which case a "W" (for weight) is shown in parenthesis. The cell line names are grouped by disease type and the disease type names are listed on the far left.

[2] = tested on: H23 (nonsmall cell lung cancer)
Excerpt: as §1, §2

P388/ADR = conditions: Mus musculus
Excerpt: as §1, §2

MCF-7 (breast) = conditions: Homo sapiens
Excerpt: as §1, §2

MOLT-4 (LEU) = conditions: Homo sapiens, status R (not acceptable test)
Excerpt: as §1, §2

HCC-2998 (colon) = conditions: Homo sapiens
Excerpt: as §1, §2

OVCAR-3 (ovarian) = conditions: Homo sapiens
Excerpt: as §1, §2

CCRF-CEM (leukemia) = conditions: Homo sapiens
Excerpt: as §1, §2

[3] = tested on: H524 (small cell lung cancer); conditions: Homo sapiens, NCI-H524
Excerpt: as §1, §2

[4] = tested on: H125 (nonsmall cell lung cancer); conditions: Homo sapiens, NCI-H125
Excerpt: as §1, §2

LOX (melanoma) = tested on: LOX (melanoma)
Excerpt: as §1, §2

UO-31 (renal) = conditions: Homo sapiens, logarithm of the concentration inhibiting growth by 50%
Excerpt: as §1, §2

[5] = tested on: H69 (small cell lung cancer)
Excerpt: as §1, §2

[6] = tested on: SNB-19 (central nervous system); conditions: Homo sapiens
Excerpt: as §1, §2

[7] = tested on: SNB-75 (central nervous system); conditions: Homo sapiens
Excerpt: as §1, §2

[8] = tested on: H322 (nonsmall cell lung cancer); conditions: NCI-H322
Excerpt: as §1, §2

[9] = tested on: H82 (small cell lung cancer)
Excerpt: as §1, §2

SK-MEL5 (melanoma) = conditions: Homo sapiens
Excerpt: as §1, §2

LOVO (colon) = conditions: Homo sapiens
Excerpt: as §1, §2

[10] = tested on: TE-671 (central nervous system); conditions: Homo sapiens
Excerpt: as §1, §2

[11] = tested on: DMS114 (small cell lung cancer); conditions: Homo sapiens
Excerpt: as §1, §2

[12] = tested on: H522 (nonsmall cell lung cancer); conditions: Homo sapiens, NCI-H522
Excerpt: as §1, §2

RPMI-7951 (melanoma) = conditions: Homo sapiens
Excerpt: as §1, §2

[13] = tested on: H520 (nonsmall cell lung cancer); conditions: Homo sapiens, NCI-H520
Excerpt: as §1, §2

CAKI-1 (renal) = conditions: Homo sapiens
Excerpt: as §1, §2

MALME-3M (melanoma) = conditions: Homo sapiens
Excerpt: as §1, §2

[14] = logarithm of the concentration inhibiting growth by 50%, read-out: LOG(IC50) (converted)

`C=CC(=O)C(O)(O)C(=O)OC(C)(C)C` [t-butyl 2,3-dioxo-pent-4-enoate hydrate] gave an IC50 ([1]; H146, logarithm of the concentration inhibiting growth by 50%, read-out: LOG(IC50) (converted)) of 126 µM, an IC50 ([1]; read-out: IC-50 MEAN) of 124 µM and an IC50 ([2]; H23, logarithm of the concentration inhibiting growth by 50%, read-out: LOG(IC50) (converted)) of 50.1 µM. The IC90 ([2]; Homo sapiens, NCI-H23) was 197 µM, the IC50 ([2]; Homo sapiens, NCI-H23, read-out: IC-50 MEAN) was 52.7 µM and the IC90 (P388/ADR) was 244 µM. It also gave an IC50 (P388/ADR; P388/AD, logarithm of the concentration inhibiting growth by 50%, read-out: LOG(IC50) (converted)) of 126 µM, an IC50 (P388/ADR; read-out: IC-50 MEAN) of 118 µM and an IC90 (MCF-7 (breast); MCF7) of 232 µM. It also gave an IC50 (MCF-7 (breast); MCF7, logarithm of the concentration inhibiting growth by 50%, read-out: LOG(IC50) (converted)) of 100 µM, an IC50 (MCF-7 (breast); MCF7, read-out: IC-50 MEAN) of 98.1 µM and an IC90 (MOLT-4 (LEU)) of 244 µM. For the same compound, the IC50 (HCC-2998 (colon); HCC 2998, HCC2998, logarithm of the concentration inhibiting growth by 50%, read-out: LOG(IC50)) was over 50.1 µM, the IC50 (HCC-2998 (colon); HCC-2998, read-out: IC-50 MEAN) was 52 µM and the IC90 (OVCAR-3 (ovarian)) was 270 µM. It also gave an IC50 (OVCAR-3 (ovarian); [14]) of 100 µM, an IC50 (OVCAR-3 (ovarian); read-out: IC-50 MEAN) of 96.6 µM and an IC50 (CCRF-CEM (leukemia); CCRF-CE, logarithm of the concentration inhibiting growth by 50%, read-out: LOG(IC50) (converted)) of 7.94 µM. For the same compound, the IC50 (CCRF-CEM (leukemia); read-out: IC-50 MEAN) was 8.05 µM, the IC90 [3] was 189 µM and the IC50 ([3]; H524, logarithm of the concentration inhibiting growth by 50%, read-out: LOG(IC50) (converted)) was 39.8 µM. It also gave an IC50 ([3]; read-out: IC-50 MEAN) of 40.8 µM, an IC50 ([4]; H125, logarithm of the concentration inhibiting growth by 50%, read-out: LOG(IC50) (converted)) of 50.1 µM and an IC50 ([4]; read-out: IC-50 MEAN) of 73.3 µM. For the same compound, the IC90 (LOX (melanoma)) was 258 µM, the IC50 (LOX (melanoma); [14]) was 100 µM and the IC50 (LOX (melanoma); read-out: IC-50 MEAN) was 102 µM. For the same compound, the IC50 (UO-31 (renal)) was over 251 µM, the IC50 ([5]; H69, logarithm of the concentration inhibiting growth by 50%, read-out: LOG(IC50) (converted)) was 100 µM and the IC90 ([5]; Homo sapiens, NCI-H69) was 269 µM. For the same compound, the IC50 ([5]; Homo sapiens, NCI-H69, read-out: IC-50 MEAN) was 95.5 µM, the IC90 [6] was 243 µM and the IC50 [6, 14] was 100 µM. The IC50 ([6]; read-out: IC-50 MEAN) was 95.2 µM, the IC90 [7] was 231 µM and the IC50 [7, 14] was 79.4 µM. For the same compound, the IC50 ([7]; read-out: IC-50 MEAN) was 81.5 µM, the IC90 [8] was 246 µM and the IC50 ([8]; H322, logarithm of the concentration inhibiting growth by 50%, read-out: LOG(IC50) (converted)) was 50.1 µM. The IC50 ([8]; read-out: IC-50 MEAN) was 48.7 µM, the IC50 ([9]; H82, logarithm of the concentration inhibiting growth by 50%, read-out: LOG(IC50) (converted)) was 39.8 µM and the IC90 ([9]; Homo sapiens, NCI-H82) was 172 µM. For the same compound, the IC50 ([9]; Homo sapiens, NCI-H82, read-out: IC-50 MEAN) was 36.7 µM, the IC90 (SK-MEL5 (melanoma); SK-MEL-5) was 222 µM and the IC50 (SK-MEL5 (melanoma); SK-MEL-5, logarithm of the concentration inhibiting growth by 50%, read-out: LOG(IC50) (converted)) was 63.1 µM. It also gave an IC50 (SK-MEL5 (melanoma); SK-MEL-5, read-out: IC-50 MEAN) of 74.2 µM, an IC90 (LOVO (colon); LoVo) of 262 µM and an IC50 (LOVO (colon); LoVo, read-out: IC-50 MEAN) of 96.6 µM. For the same compound, the IC50 (LOVO (colon); LOVO, logarithm of the concentration inhibiting growth by 50%, read-out: LOG(IC50) (converted)) was 100 µM, the IC90 [10] was 231 µM and the IC50 [10, 14] was 126 µM. For the same compound, the IC50 ([10]; read-out: IC-50 MEAN) was 114 µM, the IC90 ([11]; DMS-114) was 264 µM and the IC50 ([11]; DMS-114, logarithm of the concentration inhibiting growth by 50%, read-out: LOG(IC50) (converted)) was 126 µM. For the same compound, the IC50 ([11]; DMS-114, read-out: IC-50 MEAN) was 141 µM, the IC50 ([12]; H522, logarithm of the concentration inhibiting growth by 50%, read-out: LOG(IC50) (converted)) was 15.8 µM and the IC50 ([12]; read-out: IC-50 MEAN) was 14.3 µM. The IC90 (RPMI-7951 (melanoma)) was 178 µM, the IC50 (RPMI-7951 (melanoma); RPMI-79, logarithm of the concentration inhibiting growth by 50%, read-out: LOG(IC50) (converted)) was 79.4 µM and the IC50 (RPMI-7951 (melanoma); read-out: IC-50 MEAN) was 76.7 µM. For the same compound, the IC50 ([13]; H520, logarithm of the concentration inhibiting growth by 50%, read-out: LOG(IC50) (converted)) was 100 µM, the IC50 ([13]; read-out: IC-50 MEAN) was 105 µM and the IC90 (CAKI-1 (renal)) was 202 µM. The IC50 (CAKI-1 (renal); [14]) was 50.1 µM, the IC50 (CAKI-1 (renal); read-out: IC-50 MEAN) was 64.9 µM and the IC90 (MALME-3M (melanoma)) was 180 µM. The IC50 (MALME-3M (melanoma); MALME-3, logarithm of the concentration inhibiting growth by 50%, read-out: LOG(IC50) (converted)) was 100 µM and the IC50 (MALME-3M (melanoma); read-out: IC-50 MEAN) was 78.8 µM.
